# Patent US20130143913A1, “PROPHYLACTIC OR THERAPEUTIC AGENT FOR NON-ALCOHOLIC STEATOHEPATITIS” (KYORIN PHARMACEUTICAL CO., LTD., priority 2010, published 2013)
# What was measured:
# [1] = test system: content of triglyceride in the liver; test: Hepatic triglyceride content in fasted/re-fed mice (fatty liver model); type: in vivo, mice (male C57BI/6J); details: re-fed mice after 48 h fasting; ibudilast 10 and 100 mg/kg orally twice a day (FIG. 2); vs. vehicle
# Description: In NAFLD, it is regarded that the increase of the fatty acid synthesis in the liver is an important factor involved in the fatty liver formation (Shinji, T., et al. 2005. J. Clin. Invest. 115: 1139-1142). Therefore, with reference to methods described in Delzenne et al. (Delzenne, N. M., et al., 1997, J. HepatoL, 26: 880-885) and Tsuchida et al. (Tsuchida. A., et al., 2004, J. Bio. Chem., 279: 30817-30822), effects of ibudilast on the fatty liver were examined by using re-fed mice in which the fatty acid synthesis in the liver is enhanced. After 48 hours of fasting, male C57BI/6J mice at 8 weeks of age (CLEA Japan, Inc.) were refed for four hours. To the vehicle group as a control, 2% (v/v) of PEG-60 hydrogenated castor oil (NIKKOL HCO-60, Nikko Chemicals Co., Ltd.) was orally administrated before fasting and after fasting periods of 12, 24, 36, and 48 hours. To ibudilast groups, […] or 100 mg/kg of ibudilast which was dissolved to 2% (v/v) of PEG-60 hydrogenated castor oil was orally administered before fasting and after fasting periods of 12, 24, 36, and 48 hours. […] The content of triglyceride and biosynthesis of fatty acid in isolated liver were measured. […] The dried extract was dissolved to 4% (v/v) of Triton X-100 and the triglyceride concentration was measured using Liquitech TG-II reagent (Roche Diagnostics K. K.). […]
# TNFα mRNA = TNFα mRNA expression in liver of MCD diet-fed mice (quantitative real-time PCR); type: in vivo, mice (male C57BI/6J); details: ibudilast 10, 30 or 100 mg/kg orally twice a day for 14 days (FIG. 4), relative to 18S rRNA
# Protocol: (§1) Effects of ibudilast on the hepatic inflammation and hepatic fibrosis were examined using methionine- and choline-deficient (MCD) diet-fed mice which induced hepatic inflammation and hepatic fibrosis involved in human pathological conditions like NASH. The MCD diet (Oriental Yeast Co., Ltd.) produced in accordance with the previous report by Okumura et al. (Okumura, K., et al. 2006, Hepatol. Res., 36: 217-228) was administered to male C57BI/6J mice (CLEA Japan, Inc.) at ten weeks of age for six weeks. […] Thereafter, TNFα, MCP-1, IL-1β, TGFβ, and col1a1 mRNA expressions in isolated liver were measured using the quantitative real-time PCR method. The 18S rRNA mRNA expression was used as an internal standard of the quantitative real-time PCR method and similarly measured. […] The quantitative real-time PCR was performed using TaqMan Fast Universal PCR Master Mix (Applied Biosystems) and Applied Biosystems 7500 Fast Real-Time PCR System (Applied Biosystems). […] Moreover, each operation relating to the quantitative real-time PCR was carried out in accordance with the manual attached to each reagent, kits and device. […]
# IL-1β mRNA = IL-1β mRNA expression in liver of MCD diet-fed mice (quantitative real-time PCR); type: in vivo, mice (male C57BI/6J); details: ibudilast 10, 30 or 100 mg/kg orally twice a day for 14 days (FIG. 6), relative to 18S rRNA
# Protocol: as §1
# [2] = test system: triglyceride content in liver; test: Hepatic triglyceride content in ob/ob mice (obesity-related fatty liver model); type: in vivo, mice (male ob/ob, B6.V-Lep^ob/J); details: ibudilast 10, 30 or 100 mg/kg orally twice a day for two weeks (FIG. 3), vs. vehicle
# Protocol: Obesity and insulin resistance are regarded as a major pathologic basis in NAFLD (Kristina, M., et al. 2006, J. Clin Endocrinol Metab., 91: 4753-4761). Therefore, effect of ibudilast on fatty liver was evaluated using B6.V-Lep^ob/J mice (ob/ob; Charles River Laboratories Japan, Inc.), a model of obesity-related insulin resistance and fatty liver. Male ob/ob mice (Charles River Laboratories Japan, Inc.) at seven weeks of age were used. To the vehicle group as a control, 2% (v/v) of PEG-60 hydrogenated castor oil (NIKKOL HCO-60, Nikko Chemicals Co., Ltd.) was orally administrated twice a day. To ibudilast groups, 10, 30 or 100 mg/kg of ibudilast which was dissolved to 2% (v/v). of PEG-60 hydrogenated castor oil was orally administered twice a day. At 15 to 21 hours after the end of two weeks administration period, the mice were dissected in the fed state. The content of triglyceride in isolated liver was measured. Triglyceride was extracted from the liver by using improved method of Folch et al. (Folch, J., et al. 1957. J. Biol. Chem., 226: 497-509). Tissues were homogenized by using chloroform methanol mixture 2:1 (v/v). […] The dried extract was dissolved to 4% (v/v) of Triton X-100 and the triglyceride concentration was measured using Liquitech TG-II reagent (Roche Diagnostics K. K.). […]
# [3] = test system: fatty acid synthesis in the liver; test: Hepatic fatty acid synthesis from [1-14C]acetic acid in fasted/re-fed mice (fatty liver model); type: in vivo, mice (male C57BI/6J); details: re-fed mice after 48 h fasting; ibudilast 10 and 100 mg/kg orally twice a day (FIG. 1); vs. vehicle
# Description: In NAFLD, it is regarded that the increase of the fatty acid synthesis in the liver is an important factor involved in the fatty liver formation (Shinji, T., et al. 2005. J. Clin. Invest. 115: 1139-1142). Therefore, with reference to methods described in Delzenne et al. (Delzenne, N. M., et al., 1997, J. HepatoL, 26: 880-885) and Tsuchida et al. (Tsuchida. A., et al., 2004, J. Bio. Chem., 279: 30817-30822), effects of ibudilast on the fatty liver were examined by using re-fed mice in which the fatty acid synthesis in the liver is enhanced.
# After 48 hours of fasting, male C57BI/6J mice at 8 weeks of age (CLEA Japan, Inc.) were refed for four hours. […]
# The mice were refed with standard diet (CE-2, CLEA Japan, Inc.) after 30 minutes of the oral administration after fasting periods of 48 hours, and the mice were anatomized after refeeding periods of four hours. The content of triglyceride and biosynthesis of fatty acid in isolated liver were measured.
# The fatty acid synthesis in the liver was measured using the fatty acid synthesis from the acetic acid. […]
# After centrifugation, the chloroform layer was obtained as the lower layer. After the dried residue was dissolved to methanol, the scintillation cocktail was mixed with the obtained solution to measure radioactivity using liquid scintillation counter (Tri-Crab 1900CA, PerkinElmer). […]
# MCP-1 mRNA = MCP-1 mRNA expression in liver of MCD diet-fed mice (quantitative real-time PCR); type: in vivo, mice (male C57BI/6J); details: ibudilast 10, 30 or 100 mg/kg orally twice a day for 14 days (FIG. 5), relative to 18S rRNA
# Protocol: as §1
# TGFβ mRNA = TGFβ mRNA expression in liver of MCD diet-fed mice (quantitative real-time PCR); type: in vivo, mice (male C57BI/6J); details: ibudilast 10, 30 or 100 mg/kg orally twice a day for 14 days (FIG. 7), relative to 18S rRNA
# Protocol: as §1
# col1a1 mRNA = col1a1 mRNA expression in liver of MCD diet-fed mice (quantitative real-time PCR); type: in vivo, mice (male C57BI/6J); details: ibudilast 10, 30 or 100 mg/kg orally twice a day for 14 days (FIG. 8), relative to 18S rRNA
# Protocol: as §1
smiles,measurement,setting,value
"CC(C)C(=O)c1c(C(C)C)nn2ccccc12 [Ibudilast, ibudilast]",content of triglyceride in the liver,[1],significantly decreased
same,mRNA expression of TNFα in liver (index of hepatic inflammation),TNFα mRNA,decrease
same,mRNA expression of IL-1β in liver (index of hepatic inflammation),IL-1β mRNA,decrease
same,triglyceride content in liver,[2],significantly decreased
same,fatty acid synthesis in the liver,[3],decreased
same,mRNA expression of MCP-1 in liver (index of hepatic inflammation),MCP-1 mRNA,decrease
same,mRNA expression of TGFβ in liver (index of hepatic fibrosis),TGFβ mRNA,decrease
same,mRNA expression of collal in liver (index of hepatic fibrosis),col1a1 mRNA,decrease
